# Measurements: patent publication US9012655B2, “Antimicrobial/adjuvant compounds and methods” (Denouamed, Inc., priority 2011, dated 2015)
# Legend:
# Type in all cases: cell-based
# [1] = system: Staphylococcus aureus NRS382; test: MIC panel of challenge pathogens (CLSI); conditions: Staphylococcus aureus NRS382
# Procedure, shortened: (§1)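 Broth microdilution per CLSI guidelines. Final inoculum 2-8×10^5 CFU/ml, compounds serially two-fold diluted from 128 mg/L top concentration. Incubated in the dark at 30-37° C for 24-48 h, aerobic or anaerobic as appropriate. MIC read visually as 100% inhibition endpoint; MIC50 and MIC80 also reported.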
# [2] = system: Staphylococcus aureus EUP MRSA004; test: MIC panel of challenge pathogens (CLSI); conditions: Staphylococcus aureus EUP MRSA004
# Procedure, shortened: as §1
# [3] = system: Staphylococcus aureus AUR58 7005; test: MIC panel of challenge pathogens (CLSI); conditions: Staphylococcus aureus AUR58 7005
# Procedure, shortened: as §1
# [4] = system: Staphylococcus aureus NRS2 (ATCC700698); test: MIC panel of challenge pathogens (CLSI); conditions: Staphylococcus aureus NRS2 (ATCC700698)
# Procedure, shortened: as §1
# [5] = system: Staphylococcus aureus AUR59 7005; test: MIC panel of challenge pathogens (CLSI); conditions: Staphylococcus aureus AUR59 7005
# Procedure, shortened: as §1
# Bacillus cereus NCTC6349 = test: MIC panel of challenge pathogens (CLSI); conditions: Bacillus cereus NCTC6349
# Procedure, shortened: as §1
# [6] = system: Staphylococcus aureus ATCC43300; test: MIC panel of challenge pathogens (CLSI); conditions: Staphylococcus aureus ATCC43300
# Procedure, shortened: as §1
# [7] = system: Staphylococcus aureus EUP SAU040; test: MIC panel of challenge pathogens (CLSI); conditions: Staphylococcus aureus EUP SAU040
# Procedure, shortened: as §1
# [8] = system: Enterococcus faecalis ATCC51299; test: MIC panel of challenge pathogens (CLSI); conditions: Enterococcus faecalis ATCC51299
# Procedure, shortened: as §1
# [9] = system: Staphylococcus aureus NRS384; test: MIC panel of challenge pathogens (CLSI); conditions: Staphylococcus aureus NRS384
# Procedure, shortened: as §1
# [10] = system: Staphylococcus epidermidis NRS122; test: MIC panel of challenge pathogens (CLSI); conditions: Staphylococcus epidermidis NRS122
# Procedure, shortened: as §1
# [11] = system: Staphylococcus aureus EUP MRSA002; test: MIC panel of challenge pathogens (CLSI), EUP MRSA002; conditions: Staphylococcus aureus EUP MRSA002
# Protocol: The inocula for each bacterial strain were prepared by picking 5-10 distinct colonies from the culture plates and suspending them in the appropriate broth as per Clinical and Laboratory Standards Institute (CLSI) guidelines M07-A8, M24-A or M11-A7 as appropriate. The inoculum was resuspended by vigorous shaking on a vortex mixer for 15 s. The turbidity was then adjusted to McFarland standard 0.5 ([…]). The inoculum was further diluted in the appropriate media for MIC tests to give a final inoculum in each well of 2-8×10^5 CFU/ml. MICs were tested in the appropriate broth in accordance with the appropriate CLSI guidelines.
# A stock solution of each compound was prepared at a concentration of 1.28 g/L in DMSO. The stock was further diluted in the appropriate media to give a top starting concentration of 128 mg/L in the assay. 100 μL of the appropriate media, as per CLSI guidelines, was dispensed into each well in columns 2-12. 200 μL of the each compound solution (at 256 mg/L) was dispensed into each well in column 1. 100 μL aliquots were pipetted from column 1 wells and dispensed into column 2 with a multichannel pipette (±2% coefficient of variation) thus diluting two-fold. 100 μL samples were then pipetted from column 2 wells and dispensed into column 3. The process was repeated through to column 10. The final 100 μL of diluted drug from column 10 was then discarded. Row 11 acted as a positive control (no compound, but organisms added), Row 12 acted as a negative control (no compound, and no organisms added).
# 100 μL of the appropriate inoculum suspension in the appropriate media, as per CLSI guidelines, was added to the appropriate wells. […] All plates were incubated in the dark under aerobic or anaerobic conditions at 30-37° C. for 24-48 hours, according to the appropriate CLSI guideline. Plates were read visually 24-48 hours post inoculation. Endpoints of 100% inhibition were determined (CLSI interpretation endpoints following visual examination).
# MIC50, MIC80, and 100% inhibition results are reported below in μg/mL in the following Tables, indicating each compound tested against a given species and strain: […]
compound,measurement,setting,value
Cc1ccc(-c2cc(-c3nn[nH]n3)cc(-c3ccccc3-c3ccccc3)c2)c2ccccc12 [DNM0474],100% inhibition,[1],0.5 µg/mL
same,MIC50 (50%),[1],0.5 µg/mL
same,MIC80 (80%),[1],0.5 µg/mL
same,100% inhibition,[2],0.5 µg/mL
same,MIC50 (50%),[2],0.5 µg/mL
same,MIC80 (80%),[2],0.5 µg/mL
same,100% inhibition,[3],1 µg/mL
same,MIC50 (50%),[3],0.5 µg/mL
same,MIC80 (80%),[3],1 µg/mL
same,100% inhibition,[4],0.5 µg/mL
same,MIC50 (50%),[4],0.5 µg/mL
same,MIC80 (80%),[4],0.5 µg/mL
same,100% inhibition,[5],0.5 µg/mL
same,MIC50 (50%),[5],0.5 µg/mL
same,MIC80 (80%),[5],0.5 µg/mL
same,100% inhibition,Bacillus cereus NCTC6349,≦0.25 μg/mL
same,MIC50 (50%),Bacillus cereus NCTC6349,≦0.25 μg/mL
same,MIC80 (80%),Bacillus cereus NCTC6349,≦0.25 μg/mL
same,100% inhibition,[6],0.5 µg/mL
same,MIC50 (50%),[6],0.5 µg/mL
same,MIC80 (80%),[6],0.5 µg/mL
same,100% inhibition,[7],0.25 µg/mL
same,MIC50 (50%),[7],0.5 µg/mL
same,MIC80 (80%),[7],0.5 µg/mL
same,100% inhibition,[8],1 µg/mL
same,MIC50 (50%),[8],1 µg/mL
same,MIC80 (80%),[8],1 µg/mL
same,100% inhibition,[9],0.5 µg/mL
same,MIC50 (50%),[9],0.5 µg/mL
same,MIC80 (80%),[9],0.5 µg/mL
same,100% inhibition,[10],16 µg/mL
same,MIC50 (50%),[10],4 µg/mL
same,MIC80 (80%),[10],8 µg/mL
same,100% inhibition,[11],0.5 µg/mL
same,MIC50 (50%),[11],0.5 µg/mL
same,MIC80 (80%),[11],0.5 µg/mL
"CCCCc1cccc(-c2cc(-c3nnn[nH]3)sc2Cc2ccc(Cl)cc2)c1 [DNM0606, 5-(4-(3-Butylphenyl)-5-(4-chlorobenzyl)thiophen-2-yl)-1H-tetrazole]",MIC,[1]; read-out: 100% inhibition,0.5 µg/mL
same,MIC50,[1]; read-out: MIC50 (50%),0.5 µg/mL
same,MIC80,[1]; read-out: MIC80 (80%),0.5 µg/mL
same,MIC,"[2]; EUPMRSA004, read-out: 100% inhibition",≤ 0.25 µg/mL
same,MIC50,"[2]; EUPMRSA004, read-out: MIC50 (50%)",≤ 0.25 µg/mL
same,MIC80,"[2]; EUPMRSA004, read-out: MIC80 (80%)",≤ 0.25 µg/mL
same,MIC,"[3]; AUR587005, read-out: 100% inhibition",1 µg/mL
same,MIC50,"[3]; AUR587005, read-out: MIC50 (50%)",0.5 µg/mL
same,MIC80,"[3]; AUR587005, read-out: MIC80 (80%)",1 µg/mL
same,MIC,[4]; read-out: 100% inhibition,0.5 µg/mL
same,MIC50,[4]; read-out: MIC50 (50%),0.5 µg/mL
same,MIC80,[4]; read-out: MIC80 (80%),0.5 µg/mL
same,MIC,"[5]; AUR597005, read-out: 100% inhibition",0.5 µg/mL
same,MIC50,"[5]; AUR597005, read-out: MIC50 (50%)",0.5 µg/mL
same,MIC80,"[5]; AUR597005, read-out: MIC80 (80%)",0.5 µg/mL
same,MIC,Bacillus cereus NCTC6349; read-out: 100% inhibition,0.5 µg/mL
same,MIC50,Bacillus cereus NCTC6349; read-out: MIC50 (50%),0.5 µg/mL
same,MIC80,Bacillus cereus NCTC6349; read-out: MIC80 (80%),0.5 µg/mL
same,MIC,[6]; read-out: 100% inhibition,≤ 0.25 µg/mL
same,MIC50,[6]; read-out: MIC50 (50%),≤ 0.25 µg/mL
same,MIC80,[6]; read-out: MIC80 (80%),≤ 0.25 µg/mL
same,MIC,"[7]; EUPSAU040, read-out: 100% inhibition",≤ 0.25 µg/mL
same,MIC50,"[7]; EUPSAU040, read-out: MIC50 (50%)",≤ 0.25 µg/mL
same,MIC80,"[7]; EUPSAU040, read-out: MIC80 (80%)",≤ 0.25 µg/mL
same,MIC,[8]; read-out: 100% inhibition,1 µg/mL
same,MIC50,[8]; read-out: MIC50 (50%),1 µg/mL
same,MIC80,[8]; read-out: MIC80 (80%),1 µg/mL
same,MIC,[9]; read-out: 100% inhibition,≤ 0.25 µg/mL
same,MIC50,[9]; read-out: MIC50 (50%),≤ 0.25 µg/mL
same,MIC80,[9]; read-out: MIC80 (80%),≤ 0.25 µg/mL
same,MIC,[10]; read-out: 100% inhibition,4 µg/mL
same,MIC50,[10]; read-out: MIC50 (50%),2 µg/mL
same,MIC80,[10]; read-out: MIC80 (80%),4 µg/mL
same,MIC,"[11]; EUPMRSA002, read-out: 100% inhibition",≤ 0.25 µg/mL
same,MIC50,"[11]; EUPMRSA002, read-out: MIC50 (50%)",≤ 0.25 µg/mL
same,MIC80,"[11]; EUPMRSA002, read-out: MIC80 (80%)",≤ 0.25 µg/mL
